# Measured values: ChEMBL document CHEMBL1201862, “PubChem BioAssay data set” (2004)
#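 96-well plates; 48 h exposure; 5 concentrations. Endpoints by linear interpolation between flanking doses. Not reached: highest tested concentration assigned. GI50: concentration for 50% inhibition of growth.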 The source made the active and inactive calls. No stated cut-off is given here; in the data, active = GI50 up to about 1.1 µM and inactive = higher.
# Key:
# Experiment in all cases: NCI tumour cell line growth inhibition, 48 h
# 786-0 = system: 786-0
# A498 = system: A498
# A549 = system: A549
# ACHN = system: ACHN
# CAKI-1 = system: CAKI-1
# CCRF-CEM = system: CCRF-CEM
# COLO 205 = system: COLO 205
# DLD-1 = system: DLD-1
# DMS-114 = system: DMS-114
# DMS-273 = system: DMS-273
# EKVX = system: EKVX
# HCC 2998 = system: HCC 2998
# HCT-116 = system: HCT-116
# HCT-15 = system: HCT-15
# HL-60 = system: HL-60
# HOP-18 = system: HOP-18
# HOP-62 = system: HOP-62
# HOP-92 = system: HOP-92
# HT-29 = system: HT-29
# IGROV-1 = system: IGROV-1
# K562 = system: K562
# KM-20L2 = system: KM-20L2
# KM12 = system: KM12
# LOX IMVI = system: LOX IMVI
# LXFL 529 = system: LXFL 529
# M14 = system: M14
# M19-MEL = system: M19-MEL
# MOLT-4 = system: MOLT-4
# Malme-3M = system: Malme-3M
# NCI-H226 = system: NCI-H226
# NCI-H23 = system: NCI-H23
# NCI-H460 = system: NCI-H460
# OVCAR-3 = system: OVCAR-3
# OVCAR-4 = system: OVCAR-4
# OVCAR-5 = system: OVCAR-5
# OVCAR-8 = system: OVCAR-8
# RPMI-8226 = system: RPMI-8226
# RXF 393 = system: RXF 393
# SF-268 = system: SF-268
# SF-295 = system: SF-295
# SF-539 = system: SF-539
# SK-MEL-28 = system: SK-MEL-28
# SK-MEL-2 = system: SK-MEL-2
# SK-MEL-5 = system: SK-MEL-5
# SK-OV-3 = system: SK-OV-3
# SN12C = system: SN12C
# SNB-75 = system: SNB-75
# SNB-78 = system: SNB-78
# SR = system: SR
# SW-620 = system: SW-620
# TK-10 = system: TK-10
# U-251 = system: U-251
# UACC-257 = system: UACC-257
# UACC-62 = system: UACC-62
# UO-31 = system: UO-31
# XF498 = system: XF498
# SNB-19 = system: SNB-19
# NCI-H522 = system: NCI-H522
compound,measurement,setting,value
O=S(=O)(N/N=C/c1cccc(Cl)c1Cl)c1ccccc1,GI50,786-0,> 100 µM (inactive)
same,GI50,A498,40.8 µM (inactive)
same,GI50,A549,> 100 µM (inactive)
same,GI50,ACHN,55 µM (inactive)
same,GI50,CAKI-1,69.3 µM (inactive)
same,GI50,CCRF-CEM,66.2 µM (inactive)
same,GI50,COLO 205,89.7 µM (inactive)
same,GI50,DLD-1,45.4 µM (inactive)
same,GI50,DMS-114,27.7 µM (inactive)
same,GI50,DMS-273,71.4 µM (inactive)
same,GI50,EKVX,> 100 µM (inactive)
same,GI50,HCC 2998,> 100 µM (inactive)
same,GI50,HCT-116,47 µM (inactive)
same,GI50,HCT-15,98.2 µM
same,GI50,HL-60,39.9 µM (inactive)
same,GI50,HOP-18,87.3 µM (inactive)
same,GI50,HOP-62,> 100 µM (inactive)
same,GI50,HOP-92,14.2 µM (inactive)
same,GI50,HT-29,99.8 µM (inactive)
same,GI50,IGROV-1,77.4 µM (inactive)
same,GI50,K562,62.2 µM (inactive)
same,GI50,KM-20L2,> 100 µM (inactive)
same,GI50,KM12,> 100 µM (inactive)
same,GI50,LOX IMVI,68.7 µM (inactive)
same,GI50,LXFL 529,70.6 µM (inactive)
same,GI50,M14,> 100 µM (inactive)
same,GI50,M19-MEL,93.8 µM (inactive)
same,GI50,MOLT-4,26.9 µM (inactive)
same,GI50,Malme-3M,> 100 µM (inactive)
same,GI50,NCI-H226,> 100 µM (inactive)
same,GI50,NCI-H23,45.6 µM (inactive)
same,GI50,NCI-H460,> 100 µM (inactive)
same,GI50,OVCAR-3,> 100 µM (inactive)
same,GI50,OVCAR-4,> 100 µM (inactive)
same,GI50,OVCAR-5,> 100 µM (inactive)
same,GI50,OVCAR-8,78.2 µM (inactive)
same,GI50,RPMI-8226,66.2 µM (inactive)
same,GI50,RXF 393,22.6 µM (inactive)
same,GI50,SF-268,35.5 µM (inactive)
same,GI50,SF-295,79.6 µM (inactive)
same,GI50,SF-539,80 µM (inactive)
same,GI50,SK-MEL-28,> 100 µM (inactive)
same,GI50,SK-MEL-2,58.6 µM (inactive)
same,GI50,SK-MEL-5,43.6 µM (inactive)
same,GI50,SK-OV-3,> 100 µM (inactive)
same,GI50,SN12C,46 µM (inactive)
same,GI50,SNB-75,99.1 µM (inactive)
same,GI50,SNB-78,> 100 µM (inactive)
same,GI50,SR,38.8 µM (inactive)
same,GI50,SW-620,> 100 µM (inactive)
same,GI50,TK-10,> 100 µM (inactive)
same,GI50,U-251,90.4 µM (inactive)
same,GI50,UACC-257,48 µM (inactive)
same,GI50,UACC-62,> 100 µM (inactive)
same,GI50,UO-31,94.4 µM (inactive)
same,GI50,XF498,54.7 µM (inactive)
CC(C)(C)C1CCC2c3c([nH]c4ccccc34)C3C(=O)N(c4ccc(Br)cc4)C(=O)C3C2C1 (stereo not given),GI50,786-0,21.6 µM (inactive)
same,GI50,A498,28.6 µM (inactive)
same,GI50,A549,17.7 µM (inactive)
same,GI50,ACHN,17.7 µM (inactive)
same,GI50,CAKI-1,19.9 µM (inactive)
same,GI50,CCRF-CEM,16.7 µM (inactive)
same,GI50,COLO 205,11.1 µM (inactive)
same,GI50,DLD-1,41.4 µM (inactive)
same,GI50,DMS-114,19 µM (inactive)
same,GI50,DMS-273,17.1 µM (inactive)
same,GI50,EKVX,22 µM (inactive)
same,GI50,HCC 2998,< 0.01 µM (active)
same,GI50,HCT-116,32.9 µM (inactive)
same,GI50,HCT-15,13.7 µM
same,GI50,HL-60,13.3 µM (inactive)
same,GI50,HOP-18,52.4 µM (inactive)
same,GI50,HOP-62,21.6 µM (inactive)
same,GI50,HOP-92,24.3 µM (inactive)
same,GI50,HT-29,17.3 µM (inactive)
same,GI50,IGROV-1,21.1 µM (inactive)
same,GI50,K562,15.7 µM (inactive)
same,GI50,KM-20L2,15.1 µM (inactive)
same,GI50,KM12,22.3 µM (inactive)
same,GI50,LOX IMVI,15.7 µM (inactive)
same,GI50,LXFL 529,21.7 µM (inactive)
same,GI50,M14,26.1 µM (inactive)
same,GI50,M19-MEL,16.8 µM (inactive)
same,GI50,MOLT-4,9.64 µM (inactive)
same,GI50,Malme-3M,33.9 µM (inactive)
same,GI50,NCI-H226,18.7 µM (inactive)
same,GI50,NCI-H23,18.8 µM (inactive)
same,GI50,NCI-H460,17.7 µM (inactive)
same,GI50,OVCAR-4,16.9 µM (inactive)
same,GI50,OVCAR-5,23.6 µM (inactive)
same,GI50,OVCAR-8,21.7 µM (inactive)
same,GI50,RPMI-8226,17.1 µM (inactive)
same,GI50,SF-268,24.5 µM (inactive)
same,GI50,SF-295,25 µM (inactive)
same,GI50,SF-539,21.1 µM (inactive)
same,GI50,SK-MEL-28,48.2 µM (inactive)
same,GI50,SK-MEL-2,19 µM (inactive)
same,GI50,SK-MEL-5,25.8 µM (inactive)
same,GI50,SN12C,11.4 µM (inactive)
same,GI50,SNB-19,16.9 µM (inactive)
same,GI50,SNB-75,19.5 µM (inactive)
same,GI50,SNB-78,26.4 µM (inactive)
same,GI50,SW-620,19.8 µM (inactive)
same,GI50,TK-10,20.5 µM (inactive)
same,GI50,UACC-257,17.8 µM (inactive)
same,GI50,UACC-62,26.9 µM (inactive)
same,GI50,UO-31,14.2 µM (inactive)
same,GI50,XF498,38.4 µM (inactive)
N#C/C(=C/c1cccc(Oc2ccccc2)c1)c1ccccc1,GI50,786-0,> 100 µM (inactive)
same,GI50,A498,> 100 µM (inactive)
same,GI50,A549,> 100 µM (inactive)
same,GI50,ACHN,> 100 µM (inactive)
same,GI50,CAKI-1,> 100 µM (inactive)
same,GI50,CCRF-CEM,> 100 µM (inactive)
same,GI50,COLO 205,55 µM (inactive)
same,GI50,DLD-1,> 100 µM (inactive)
same,GI50,DMS-114,51.8 µM (inactive)
same,GI50,EKVX,> 100 µM (inactive)
same,GI50,HCC 2998,> 100 µM (inactive)
same,GI50,HCT-116,> 100 µM (inactive)
same,GI50,HCT-15,> 100 µM
same,GI50,HL-60,64.7 µM (inactive)
same,GI50,HOP-18,> 100 µM (inactive)
same,GI50,HOP-92,93.8 µM (inactive)
same,GI50,HT-29,> 100 µM (inactive)
same,GI50,IGROV-1,> 100 µM (inactive)
same,GI50,K562,36.7 µM (inactive)
same,GI50,KM12,> 100 µM (inactive)
same,GI50,LOX IMVI,> 100 µM (inactive)
same,GI50,LXFL 529,> 100 µM (inactive)
same,GI50,M14,> 100 µM (inactive)
same,GI50,M19-MEL,> 100 µM (inactive)
same,GI50,MOLT-4,> 100 µM (inactive)
same,GI50,Malme-3M,> 100 µM (inactive)
same,GI50,NCI-H226,> 100 µM (inactive)
same,GI50,NCI-H23,> 100 µM (inactive)
same,GI50,NCI-H460,> 100 µM (inactive)
same,GI50,NCI-H522,> 100 µM (inactive)
same,GI50,OVCAR-4,> 100 µM (inactive)
same,GI50,OVCAR-5,34.6 µM (inactive)
same,GI50,OVCAR-8,> 100 µM (inactive)
same,GI50,RPMI-8226,> 100 µM (inactive)
same,GI50,SF-268,> 100 µM (inactive)
same,GI50,SF-295,4.95 µM (inactive)
same,GI50,SF-539,> 100 µM (inactive)
same,GI50,SK-MEL-28,> 100 µM (inactive)
same,GI50,SK-MEL-2,66.5 µM (inactive)
same,GI50,SK-MEL-5,> 100 µM (inactive)
same,GI50,SK-OV-3,> 100 µM (inactive)
same,GI50,SN12C,> 100 µM (inactive)
same,GI50,SNB-75,> 100 µM (inactive)
same,GI50,SNB-78,> 100 µM (inactive)
same,GI50,SR,> 100 µM (inactive)
same,GI50,SW-620,> 100 µM (inactive)
same,GI50,TK-10,> 100 µM (inactive)
same,GI50,U-251,> 100 µM (inactive)
same,GI50,UACC-257,> 100 µM (inactive)
same,GI50,UACC-62,> 100 µM (inactive)
same,GI50,UO-31,> 100 µM (inactive)
same,GI50,XF498,> 100 µM (inactive)
